Patent US20150344540A1, “NOVEL GLP-1 RECEPTOR AGONISTS WITH CHOLESTEROL EFFLUX ACTIVITY” (NOVO NORDISK A/S, priority 2012, published 2015)
Read-outs that look alike come from different tables or passages of the source. Where a SMILES comes first, the peptide text is derived from it. [ ]: non-standard residue; d: D form. Aib = CC(C)(N)C(=O)O

What was measured:
[1] = system: Mouse monocyte/macrophage cell line, RAW 264.7; test: Cholesterol efflux assay (3H-cholesterol, macrophage cell line); assay type: cell-based; settings: RAW 264.7, 4 hrs incubation, 0.1% human serum albumin; for 4 h Cholesterol Efflux Emax: ABCA1-mediated efflux
[2] = target: human GLP-1 receptor (Homo sapiens, UniProt P43220); test: Functional GLP-1 receptor assay, in vitro potency (CRE luciferase; whole cells); assay type: cell-based
[3] = BHK cells expressing human GLP-1 receptor, 0% HSA, read-out: GLP1R CRE luc 0% HSA EC50 Mean Value
[4] = GLP1R CRE luc 1% HSA EC50 Mean Value, BHK cells expressing human GLP-1 receptor, 1% HSA

Chain of human GLP-1 receptor (P43220 24-463): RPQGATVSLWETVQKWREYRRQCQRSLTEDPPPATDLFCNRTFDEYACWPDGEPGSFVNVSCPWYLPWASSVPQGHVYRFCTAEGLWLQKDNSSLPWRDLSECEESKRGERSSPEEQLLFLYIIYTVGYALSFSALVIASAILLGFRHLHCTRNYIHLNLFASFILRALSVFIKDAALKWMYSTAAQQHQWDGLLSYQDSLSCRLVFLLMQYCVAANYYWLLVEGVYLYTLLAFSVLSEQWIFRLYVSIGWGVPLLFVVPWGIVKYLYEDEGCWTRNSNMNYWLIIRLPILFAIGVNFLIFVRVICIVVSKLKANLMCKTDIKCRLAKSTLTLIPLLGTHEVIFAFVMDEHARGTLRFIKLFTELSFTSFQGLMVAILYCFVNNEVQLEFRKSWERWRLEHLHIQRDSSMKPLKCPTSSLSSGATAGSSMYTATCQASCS

| Molecule | EC50 [2, 3] [nM] | EC50 [2, 4] [nM] | 4 h Cholesterol Efflux Emax [1] [%] | EC50 ([1]; read-out: 4 h Cholesterol Efflux EC50, ABCA1-mediated efflux (CPT-cAMP induced minus non-induced)) [nM] | EC50 ([2]; GLP1R CRE luc 1% HSA EC50 Mean Value) [nM] |
| --- | --- | --- | --- | --- | --- |
| CC[C@H](C)[C@H](NC(=O)[C@H](Cc1ccccc1)NC(=O)[C@H](CCC(=O)O)NC(=O)[C@H](CCCCN)NC(=O)[C@@H](NC(=O)[C@H](C)NC(=O)[C@H](CCC(=O)O)NC(=O)CNC(=O)[C@H](CCC(=O)O)NC(=O)[C@H](CC(C)C)NC(=O)[C@H](Cc1ccc(O)cc1)NC(=O)[C@H](CO)NC(=O)[C@H](CO)NC(=O)[C@@H](NC(=O)[C@H](CC(=O)O)NC(=O)[C@H](CO)NC(=O)[C@@H](NC(=O)[C@H](Cc1ccccc1)NC(=O)[C@@H](NC(=O)CNC(=O)[C@H](CCC(=O)O)NC(=O)C(C)(C)NC(=O)[C@@H](N)Cc1c[nH]cn1)[C@@H](C)O)[C@@H](C)O)C(C)C)C(C)C)C(=O)N[C@@H](C)C(=O)N[C@@H](Cc1c[nH]c2ccccc12)C(=O)N[C@@H](CC(C)C)C(=O)N[C@H](C(=O)N[C@@H](CCC(=O)O)C(=O)N[C@@H](CCCCN)C(=O)N[C@@H](Cc1ccccc1)C(=O)N[C@@H](CCCCN)C(=O)N[C@@H](CCC(=O)O)C(=O)N[C@@H](C)C(=O)N[C@@H](Cc1ccccc1)C(N)=O)C(C)C [Compound 46, [Aib8,Glu23,Val25,Glu34,Lys35,Phe36,Lys37]-GLP-1-(7-37)-peptidyl-Glu-Ala-Phe amide] (H-H[Aib]EGTFTSDVSSYLEGEAVKEFIAWLVEKFKEAF-NH2) | 0.372 | – | 98 | – | – |
| CC[C@H](C)[C@H](NC(=O)[C@H](Cc1ccccc1)NC(=O)[C@H](CCC(=O)O)NC(=O)[C@H](CCCCN)NC(=O)[C@@H](NC(=O)[C@H](C)NC(=O)[C@H](CCC(=O)O)NC(=O)CNC(=O)[C@H](CCC(=O)O)NC(=O)[C@H](CC(C)C)NC(=O)[C@H](Cc1ccc(O)cc1)NC(=O)[C@H](CO)NC(=O)[C@H](CO)NC(=O)[C@@H](NC(=O)[C@H](CC(=O)O)NC(=O)[C@H](CO)NC(=O)[C@@H](NC(=O)[C@H](Cc1ccccc1)NC(=O)[C@@H](NC(=O)CNC(=O)[C@H](CCC(=O)O)NC(=O)C(C)(C)NC(=O)[C@@H](N)Cc1c[nH]cn1)[C@@H](C)O)[C@@H](C)O)C(C)C)C(C)C)C(=O)N[C@@H](C)C(=O)N[C@@H](Cc1c[nH]c2ccccc12)C(=O)N[C@@H](CC(C)C)C(=O)N[C@H](C(=O)N[C@@H](CCC(=O)O)C(=O)NCC(=O)NC(C)(C)C(=O)N[C@@H](CCCCN)C(=O)N[C@@H](CCC(=O)O)C(=O)N[C@@H](Cc1ccccc1)C(=O)N[C@@H](CC(C)C)C(N)=O)C(C)C [Compound 30, [Aib8,Glu23,Val25,Glu34,Aib36,Lys37]-GLP-1-(7-37)-peptidyl-Glu-Phe-Leu amide] (H-H[Aib]EGTFTSDVSSYLEGEAVKEFIAWLVEG[Aib]KEFL-NH2) | 0.034 | 0.013 | 75 | – | – |
| CC[C@H](C)[C@H](NC(=O)[C@H](Cc1ccccc1)NC(=O)[C@H](CCC(=O)O)NC(=O)[C@H](CCCCN)NC(=O)[C@@H](NC(=O)[C@H](C)NC(=O)[C@H](CCC(=O)O)NC(=O)CNC(=O)[C@H](CCC(=O)O)NC(=O)[C@H](CC(C)C)NC(=O)[C@H](Cc1ccc(O)cc1)NC(=O)[C@H](CO)NC(=O)[C@H](CO)NC(=O)[C@@H](NC(=O)[C@H](CC(=O)O)NC(=O)[C@H](CO)NC(=O)[C@@H](NC(=O)[C@H](CC(C)C)NC(=O)[C@@H](NC(=O)CNC(=O)[C@H](CC(=O)O)NC(=O)[C@H](C)NC(=O)[C@@H](N)Cc1c[nH]cn1)[C@@H](C)O)[C@@H](C)O)[C@@H](C)CC)C(C)C)C(=O)N[C@@H](C)C(=O)N[C@@H](Cc1c[nH]c2ccccc12)C(=O)N[C@@H](CC(C)C)C(=O)N[C@H](C(=O)N[C@@H](CCC(=O)O)C(=O)N[C@@H](CCCCN)C(=O)NC(C)(C)C(=O)N[C@@H](CCCCN)C(=O)N[C@@H](CCC(=O)O)C(=O)N[C@@H](Cc1ccccc1)C(=O)N[C@@H](CC(C)C)C(N)=O)C(C)C [Compound 14, [Asp9,Leu12,Ile16,Glu23,Val25,Glu34,Lys35,Aib36,Lys37]-GLP-1-(7-37)-peptidyl-Glu-Phe-Leu amide] (H-HADGTLTSDISSYLEGEAVKEFIAWLVEK[Aib]KEFL-NH2; N-terminus assumed) | – | – | – | 300 | 0.062 |
| CC[C@H](C)[C@H](NC(=O)[C@H](Cc1ccccc1)NC(=O)[C@H](CCC(=O)O)NC(=O)[C@H](CCCCN)NC(=O)[C@H](C)NC(=O)[C@H](C)NC(=O)[C@H](CCC(=O)O)NC(=O)[C@H](CCC(=O)O)NC(=O)[C@H](CCC(=O)O)NC(=O)[C@H](CC(C)C)NC(=O)[C@H](Cc1ccc(O)cc1)NC(=O)[C@H](CCCCN)NC(=O)[C@H](CO)NC(=O)[C@H](Cc1ccc(O)cc1)NC(=O)[C@H](CC(=O)O)NC(=O)[C@H](CO)NC(=O)[C@@H](NC(=O)[C@H](Cc1ccccc1)NC(=O)[C@@H](NC(=O)CNC(=O)[C@H](Cc1c[nH]cn1)NC(=O)C(C)(C)NC(=O)[C@@H](N)Cc1c[nH]cn1)[C@@H](C)O)[C@@H](C)O)C(=O)N[C@@H](C)C(=O)N[C@@H](Cc1c[nH]c2ccccc12)C(=O)N[C@@H](CC(C)C)C(=O)N[C@@H](CC(C)C)C(=O)N[C@@H](CCC(=O)O)C(=O)N[C@@H](CCCCN)C(=O)NC(C)(C)C(=O)N[C@@H](CCCCN)C(=O)N[C@@H](CCC(=O)O)C(=O)N[C@@H](Cc1ccccc1)C(=O)N[C@@H](CC(C)C)C(N)=O [Compound 55] (H-H[Aib]HGTFTSDYSKYLEEEAAKEFIAWLLEK[Aib]KEFL-NH2) | 0.08 | 0.049 | 96 | – | – |

Further lines, with some results ahead:

| EC50 [2, 3] [nM] | EC50 [2, 4] [nM] | Molecule | 4 h Cholesterol Efflux Emax [1] [%] | EC50 ([1]; read-out: 4 h Cholesterol Efflux EC50, ABCA1-mediated efflux (CPT-cAMP induced minus non-induced)) [nM] | EC50 ([2]; GLP1R CRE luc 1% HSA EC50 Mean Value) [nM] |
| --- | --- | --- | --- | --- | --- |
| 0.011 | – | CC[C@H](C)[C@H](NC(=O)[C@H](Cc1ccccc1)NC(=O)[C@H](CCC(=O)O)NC(=O)[C@H](CCCCN)NC(=O)[C@@H](NC(=O)[C@H](C)NC(=O)[C@H](CCC(=O)O)NC(=O)CNC(=O)[C@H](CCC(=O)O)NC(=O)[C@H](CC(C)C)NC(=O)[C@H](Cc1ccc(O)cc1)NC(=O)[C@H](CO)NC(=O)[C@H](CO)NC(=O)[C@@H](NC(=O)[C@H](CC(=O)O)NC(=O)[C@H](CO)NC(=O)[C@@H](NC(=O)[C@H](Cc1ccccc1)NC(=O)[C@@H](NC(=O)CNC(=O)[C@H](CCC(=O)O)NC(=O)C(C)(C)NC(=O)[C@@H](N)Cc1c[nH]cn1)[C@@H](C)O)[C@@H](C)O)C(C)C)C(C)C)C(=O)N[C@@H](C)C(=O)N[C@@H](Cc1c[nH]c2ccccc12)C(=O)N[C@@H](CC(C)C)C(=O)N[C@H](C(=O)N[C@@H](CCC(=O)O)C(=O)N[C@@H](CCCCN)C(=O)N[C@H](C(=O)N[C@@H](CCCCN)C(=O)N[C@@H](CCC(=O)O)C(=O)NCC(=O)N[C@@H](CC(C)C)C(N)=O)C(C)C)C(C)C [Compound 117, [Aib8,Glu23,Val25,Glu34,Lys35,Val36,Lys37]-GLP-1-(7-37)-peptidyl-Glu-Gly-Leu amide] (H-H[Aib]EGTFTSDVSSYLEGEAVKEFIAWLVEKVKEGL-NH2) | 114 | – | – |
| 0.041 | 0.017 | H-HAEGTFTSDVSSYLEGEAVREFIAWLVERVREFLEK-OH [Compound 138] | 96 | – | – |
| 0.116 | 0.034 | CC[C@H](C)[C@H](NC(=O)[C@H](Cc1ccccc1)NC(=O)[C@H](CCC(=O)O)NC(=O)[C@H](CCCCN)NC(=O)[C@@H](NC(=O)[C@H](C)NC(=O)[C@H](CCC(=O)O)NC(=O)[C@H](CCC(=O)O)NC(=O)[C@H](CCC(=O)O)NC(=O)[C@H](CC(C)C)NC(=O)[C@H](Cc1ccc(O)cc1)NC(=O)[C@H](CO)NC(=O)[C@H](CO)NC(=O)[C@@H](NC(=O)[C@H](CC(=O)O)NC(=O)[C@H](CO)NC(=O)[C@@H](NC(=O)[C@H](Cc1ccccc1)NC(=O)[C@@H](NC(=O)CNC(=O)[C@H](CCC(=O)O)NC(=O)C(C)(C)NC(=O)[C@@H](N)Cc1c[nH]cn1)[C@@H](C)O)[C@@H](C)O)C(C)C)C(C)C)C(=O)N[C@@H](C)C(=O)N[C@@H](Cc1c[nH]c2ccccc12)C(=O)N[C@@H](CC(C)C)C(=O)N[C@H](C(=O)N[C@@H](CCC(=O)O)C(=O)N[C@@H](CCCCN)C(=O)N[C@H](C(=O)N[C@@H](CCCCN)C(=O)N[C@@H](CCC(=O)O)C(=O)N[C@@H](Cc1ccccc1)C(=O)N[C@@H](CC(C)C)C(N)=O)C(C)C)C(C)C [Compound 137, [Aib8,Glu22,Glu23,Val25,Glu34,Lys35,Val36,Lys37]-GLP-1-(7-37)-peptidyl-Glu-Phe-Leu amide] (H-H[Aib]EGTFTSDVSSYLEEEAVKEFIAWLVEKVKEFL-NH2) | 108 | – | – |
| – | 0.042 | CC[C@H](C)[C@H](NC(=O)[C@H](Cc1ccccc1)NC(=O)[C@H](CCC(=O)O)NC(=O)[C@H](CCCCN)NC(=O)[C@@H](NC(=O)[C@H](C)NC(=O)[C@H](CCC(=O)O)NC(=O)CNC(=O)[C@H](CCC(=O)O)NC(=O)[C@H](CC(C)C)NC(=O)[C@H](Cc1ccc(O)cc1)NC(=O)[C@H](CO)NC(=O)[C@H](CO)NC(=O)[C@@H](NC(=O)[C@H](CC(=O)O)NC(=O)[C@H](CO)NC(=O)[C@@H](NC(=O)[C@H](Cc1ccccc1)NC(=O)[C@@H](NC(=O)CNC(=O)[C@H](CCC(=O)O)NC(=O)C(C)(C)NC(=O)[C@@H](N)Cc1c[nH]cn1)[C@@H](C)O)[C@@H](C)O)C(C)C)C(C)C)C(=O)N[C@@H](CCC(N)=O)C(=O)N[C@@H](Cc1c[nH]c2ccccc12)C(=O)N[C@@H](CC(C)C)C(=O)N[C@H](C(=O)N[C@@H](CCC(=O)O)C(=O)N[C@@H](CCCCN)C(=O)NC(C)(C)C(=O)N[C@@H](CCCCN)C(=O)N[C@@H](CCC(=O)O)C(=O)N[C@@H](Cc1ccccc1)C(=O)N[C@@H](CC(C)C)C(N)=O)C(C)C [Compound 83, [Aib8,Glu23,Val25,Gln30,Glu34,Lys35,Aib36,Lys37]-GLP-1-(7-37)-peptidyl-Glu-Phe-Leu amide] (H-H[Aib]EGTFTSDVSSYLEGEAVKEFIQWLVEK[Aib]KEFL-NH2) | 97 | – | – |
